What was measured:
[1] = Selectivity ratio of Ki for murine macrophage recombinant iNOS to Ki for rat recombinant nNOS
[2] = Selectivity ratio of Ki for bovine recombinant eNOS to Ki for rat recombinant nNOS
Nitric oxide synthase 1 = Nitric oxide synthase 1 (Rattus norvegicus, UniProt P29476); assay: Inhibition of rat recombinant nNOS expressed in Escherichia coli by UV-vis spectrometric analysis
[3] = target: T1, Nitric oxide synthase, inducible (Mus musculus, UniProt P29477); assay: Inhibition of mouse macrophage recombinant iNOS expressed in Escherichia coli by UV-vis spectrometric analysis
T1 sequence (P29477 whole entry): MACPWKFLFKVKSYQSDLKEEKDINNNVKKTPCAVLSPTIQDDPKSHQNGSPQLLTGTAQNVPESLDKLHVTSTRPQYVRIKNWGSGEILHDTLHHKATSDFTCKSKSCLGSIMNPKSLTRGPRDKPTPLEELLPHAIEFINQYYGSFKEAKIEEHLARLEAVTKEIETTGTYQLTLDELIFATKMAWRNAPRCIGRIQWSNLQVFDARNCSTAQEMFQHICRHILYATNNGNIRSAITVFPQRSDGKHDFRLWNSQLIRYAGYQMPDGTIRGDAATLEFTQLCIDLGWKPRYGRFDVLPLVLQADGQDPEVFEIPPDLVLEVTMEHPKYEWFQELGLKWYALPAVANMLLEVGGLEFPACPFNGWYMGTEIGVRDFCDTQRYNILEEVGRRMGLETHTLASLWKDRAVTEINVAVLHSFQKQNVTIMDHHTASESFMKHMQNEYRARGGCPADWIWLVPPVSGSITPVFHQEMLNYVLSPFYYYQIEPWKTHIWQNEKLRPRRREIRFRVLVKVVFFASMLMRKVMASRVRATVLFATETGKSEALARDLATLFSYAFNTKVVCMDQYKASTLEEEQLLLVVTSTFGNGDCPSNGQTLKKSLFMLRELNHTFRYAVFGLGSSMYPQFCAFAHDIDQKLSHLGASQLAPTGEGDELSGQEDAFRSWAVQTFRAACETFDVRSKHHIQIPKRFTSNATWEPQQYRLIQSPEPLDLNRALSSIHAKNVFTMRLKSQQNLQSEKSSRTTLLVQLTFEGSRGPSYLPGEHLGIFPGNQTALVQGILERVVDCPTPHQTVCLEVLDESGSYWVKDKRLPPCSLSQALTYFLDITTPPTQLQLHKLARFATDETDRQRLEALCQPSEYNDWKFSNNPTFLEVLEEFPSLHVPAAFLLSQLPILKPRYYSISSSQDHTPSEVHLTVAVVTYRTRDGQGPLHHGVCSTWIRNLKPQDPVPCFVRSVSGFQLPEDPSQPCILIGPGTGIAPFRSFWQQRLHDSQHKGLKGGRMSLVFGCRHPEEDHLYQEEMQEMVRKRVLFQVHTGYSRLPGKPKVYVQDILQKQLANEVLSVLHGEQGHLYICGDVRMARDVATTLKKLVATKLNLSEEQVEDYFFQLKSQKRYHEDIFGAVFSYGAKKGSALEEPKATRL

Nitric oxide synthase 3 = target: T2, Nitric oxide synthase 3 (Bos taurus, UniProt P29473); assay: Inhibition of bovine recombinant eNOS expressed in Escherichia coli by UV-vis spectrometric analysis
T2 sequence (P29473 whole entry): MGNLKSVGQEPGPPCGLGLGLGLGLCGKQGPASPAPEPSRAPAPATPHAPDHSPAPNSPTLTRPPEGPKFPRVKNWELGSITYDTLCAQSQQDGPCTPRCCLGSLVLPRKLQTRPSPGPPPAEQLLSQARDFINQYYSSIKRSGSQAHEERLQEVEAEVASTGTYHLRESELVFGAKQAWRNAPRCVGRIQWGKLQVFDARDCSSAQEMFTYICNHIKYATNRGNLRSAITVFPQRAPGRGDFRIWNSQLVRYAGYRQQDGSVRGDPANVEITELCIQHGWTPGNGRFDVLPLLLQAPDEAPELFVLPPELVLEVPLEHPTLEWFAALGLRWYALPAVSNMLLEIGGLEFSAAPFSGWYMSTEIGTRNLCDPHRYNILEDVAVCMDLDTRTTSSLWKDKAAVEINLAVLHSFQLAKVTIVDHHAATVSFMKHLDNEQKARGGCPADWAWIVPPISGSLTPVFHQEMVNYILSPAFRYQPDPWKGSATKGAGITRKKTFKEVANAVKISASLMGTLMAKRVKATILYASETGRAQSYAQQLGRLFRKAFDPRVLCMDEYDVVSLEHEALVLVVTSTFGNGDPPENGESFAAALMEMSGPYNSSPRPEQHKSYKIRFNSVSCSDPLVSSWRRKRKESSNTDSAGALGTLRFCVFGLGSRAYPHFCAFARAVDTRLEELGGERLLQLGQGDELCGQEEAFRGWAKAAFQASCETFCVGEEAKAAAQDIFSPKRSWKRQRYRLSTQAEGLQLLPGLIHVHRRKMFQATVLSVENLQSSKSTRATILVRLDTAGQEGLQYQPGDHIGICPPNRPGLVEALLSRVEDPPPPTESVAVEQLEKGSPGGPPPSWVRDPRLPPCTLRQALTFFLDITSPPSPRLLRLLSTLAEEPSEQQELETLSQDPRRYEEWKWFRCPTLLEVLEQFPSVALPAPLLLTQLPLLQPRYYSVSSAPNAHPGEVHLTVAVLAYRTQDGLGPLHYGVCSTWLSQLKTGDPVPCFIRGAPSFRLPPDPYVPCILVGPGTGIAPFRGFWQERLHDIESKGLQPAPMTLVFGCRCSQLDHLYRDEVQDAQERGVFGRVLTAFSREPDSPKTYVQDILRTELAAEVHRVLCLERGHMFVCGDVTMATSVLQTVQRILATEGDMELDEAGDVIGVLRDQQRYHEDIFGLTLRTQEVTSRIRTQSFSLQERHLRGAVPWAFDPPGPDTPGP

Chain of Nitric oxide synthase 1 (P29476 whole entry): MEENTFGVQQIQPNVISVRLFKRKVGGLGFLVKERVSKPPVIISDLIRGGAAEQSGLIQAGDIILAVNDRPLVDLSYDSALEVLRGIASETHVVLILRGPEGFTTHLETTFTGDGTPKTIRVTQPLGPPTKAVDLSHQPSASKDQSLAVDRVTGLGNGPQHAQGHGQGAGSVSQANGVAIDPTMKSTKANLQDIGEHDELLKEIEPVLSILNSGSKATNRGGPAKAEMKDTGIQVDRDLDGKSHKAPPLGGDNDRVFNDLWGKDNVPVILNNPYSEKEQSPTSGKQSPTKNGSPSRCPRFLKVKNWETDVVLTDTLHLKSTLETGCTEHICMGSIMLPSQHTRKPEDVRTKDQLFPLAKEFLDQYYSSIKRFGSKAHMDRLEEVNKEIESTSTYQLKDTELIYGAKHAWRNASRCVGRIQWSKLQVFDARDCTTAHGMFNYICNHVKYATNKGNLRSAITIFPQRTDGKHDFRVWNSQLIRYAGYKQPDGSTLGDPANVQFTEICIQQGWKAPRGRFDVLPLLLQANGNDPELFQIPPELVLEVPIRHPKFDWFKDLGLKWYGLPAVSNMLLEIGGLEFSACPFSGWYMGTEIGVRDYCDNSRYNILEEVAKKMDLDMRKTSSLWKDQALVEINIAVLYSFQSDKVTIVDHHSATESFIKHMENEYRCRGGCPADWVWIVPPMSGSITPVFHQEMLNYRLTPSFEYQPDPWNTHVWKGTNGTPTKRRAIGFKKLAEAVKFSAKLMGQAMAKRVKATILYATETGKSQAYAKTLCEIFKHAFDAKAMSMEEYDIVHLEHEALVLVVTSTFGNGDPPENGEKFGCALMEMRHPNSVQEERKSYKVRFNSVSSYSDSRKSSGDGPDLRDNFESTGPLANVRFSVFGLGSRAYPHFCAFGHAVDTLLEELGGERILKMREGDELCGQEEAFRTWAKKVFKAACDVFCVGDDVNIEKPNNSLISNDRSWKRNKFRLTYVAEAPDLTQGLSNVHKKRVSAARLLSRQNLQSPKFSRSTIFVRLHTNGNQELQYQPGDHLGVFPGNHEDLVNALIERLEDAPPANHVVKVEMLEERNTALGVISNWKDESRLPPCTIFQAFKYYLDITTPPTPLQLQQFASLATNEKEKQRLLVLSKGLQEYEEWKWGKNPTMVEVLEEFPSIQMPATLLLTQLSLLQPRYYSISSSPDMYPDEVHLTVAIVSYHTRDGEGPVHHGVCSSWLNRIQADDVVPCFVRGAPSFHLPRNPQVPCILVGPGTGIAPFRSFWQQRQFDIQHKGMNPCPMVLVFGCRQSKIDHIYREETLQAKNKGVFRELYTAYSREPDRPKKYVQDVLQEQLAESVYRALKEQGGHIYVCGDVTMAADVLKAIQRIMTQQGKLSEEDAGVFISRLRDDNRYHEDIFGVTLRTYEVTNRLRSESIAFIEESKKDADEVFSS

| Ki (Nitric oxide synthase 1) | Compound | Ratio Ki [1] | Ratio Ki [2] | Ki [3] | Ki (Nitric oxide synthase 3) |
| --- | --- | --- | --- | --- | --- |
|  | Cc1cc(N)nc(CCc2cccc(CCc3cc(C)nc(N)c3)c2)c1 | 71.8 | 111 |  |  |
|  | Cc1cc(N)nc(CCc2ccc3ccc(CCc4cc(C)cc(N)n4)cc3c2)c1 | 20.1 | 14.9 |  |  |
|  | Cc1cc(N)nc(CCc2ccc(CCc3cc(C)cc(N)n3)cc2)c1 | 24.8 | 24.6 |  |  |
| > 1 µM | Cc1cc(N)nc(CCc2ccc3ccc(CCc4cc(C)nc(N)c4)cc3c2)c1 |  |  |  |  |
| 0.195 µM | Cc1cc(N)nc(CCc2cccc(CCc3cc(C)nc(N)c3)n2)c1 |  |  | 12.6 µM | 20 µM |
| > 1 µM | Cc1cc(CCc2cccc(CCc3cc(C)nc(N)c3)c2)cc(N)n1 |  |  |  |  |
|  | Cc1cc(N)nc(CCc2cncc(CCc3cc(C)nc(N)c3)c2)c1 | 19 | 156 |  |  |
|  | Cc1cc(N)nc(CCc2cccc(CCc3cc(C)cc(N)n3)n2)c1 | 48 | 95 |  |  |
| > 1 µM | Cc1cc(C)nc(NCc2ccc3cc(CNc4cc(C)cc(C)n4)ccc3c2)c1 |  |  |  |  |
|  | Cc1cc(N)nc(CCc2ccc3cc(CCc4cc(C)cc(N)n4)ccc3c2)c1 | 9.42 | 7.22 |  |  |

| Compound | Ki (Nitric oxide synthase 1) | Ratio Ki [1] | Ratio Ki [2] | Ki [3] | Ki (Nitric oxide synthase 3) |
| --- | --- | --- | --- | --- | --- |
| Cc1cc(N)nc(CCc2cc(N)cc(CCc3cc(C)cc(N)n3)c2)c1 | 0.085 µM | 40 | 58 | 3.4 µM | 4.95 µM |

Source: ChEMBL document CHEMBL1764947, “Symmetric double-headed aminopyridines, a novel strategy for potent and membrane-permeable inhibitors of neuronal nitric oxide synthase” (J Med Chem, 2011)
